Experimental data published in ChEMBL document CHEMBL4308851, “Alkyl-guanidine Compounds as Potent Broad-Spectrum Antibacterial Agents: Chemical Library Extension and Biological Characterization” (J Med Chem, 2018).
≈ marks a conversion by molar mass, not a printed value. Calls of active or inactive are those of the source. The calls are words filed in the database; no cut-off is given here.

Experiments:
Acinetobacter baumannii [1] = test: Antibacterial activity against Acinetobacter baumannii ATCC 17978 after 18 hrs by microdilution broth method; format: functional
Escherichia coli [2] = test: Antibacterial activity against Escherichia coli CCUG after 24 hrs by microdilution broth method; format: functional
Klebsiella pneumoniae [3] = test: Antibacterial activity against Klebsiella pneumoniae ATCC […] after 18 hrs by microdilution broth method; format: functional
Pseudomonas aeruginosa [4] = test: Antibacterial activity against Pseudomonas aeruginosa ATCC 27853 after 18 hrs by microdilution broth method; format: functional
Escherichia coli [5] = test: Bactericidal activity against Escherichia coli CCUG assessed as log reduction in CFU at 2 times MIC concentration after 1 hr by time kill assay; format: functional
in vitro [6] = details: human, Caco-2
Description: Efflux ratio of apparent permeability in human Caco2 cells at 10 uM after 120 mins by LC-MS/MS analysis

Escherichia coli [7] = test: Antibacterial activity against Escherichia coli CCUG deficient in potA gene; format: functional, organism-based
Escherichia coli [8] = test: Antibacterial activity against Escherichia coli CCUG deficient in potB gene; format: functional, organism-based
Bacillus spizizenii = test: Antibacterial activity against Bacillus subtilis ATCC 6633 after 18 hrs by microdilution broth method; format: functional; details: ATCC 6633, 18 h
Enterococcus faecalis = test: Antibacterial activity against Enterococcus faecalis ATCC 19433 after 18 hrs by microdilution broth method; format: functional; details: ATCC 19433, 18 h
Staphylococcus aureus = test: Antibacterial activity against Staphylococcus aureus ATCC 25923 after 18 hrs by microdilution broth method; format: functional; details: ATCC 25923, 18 h
Streptococcus pyogenes = test: Antibacterial activity against Streptococcus pyogenes ATCC 12344 after 18 hrs by microdilution broth method; format: functional; details: ATCC 12344, 18 h
Acinetobacter baumannii [9] = test: Antibacterial activity against Acinetobacter baumannii isolate AC-54/97 after 18 hrs by microdilution broth method; format: functional; details: isolate AC-54/97, 18 h
Burkholderia cepacia = test: Antibacterial activity against Burkholderia cepacia isolate SI-R2 after 18 hrs by microdilution broth method; format: functional; details: isolate SI-R2, 18 h
Enterobacter cloacae = test: Antibacterial activity against Enterobacter cloacae isolate VA-417/02 after 18 hrs by microdilution broth method; format: functional; details: isolate VA-417/02, 18 h
Klebsiella pneumoniae [10] = test: Antibacterial activity against Klebsiella pneumoniae isolate SI-081 after 18 hrs by microdilution broth method; format: functional; details: isolate SI-081, 18 h
[11] = test system: Stenotrophomonas maltophilia; test: Antibacterial activity against Stenotrophomonas maltophilia isolate 634/08 after 18 hrs by microdilution broth method; format: functional; details: isolate 634/08, 18 h
Escherichia coli [12] = test: Antibacterial activity against Escherichia coli MG1655 cultured in MHB supplemented with 10% human serum assessed as reduction in bacterial growth at 1 ug/ml after 24 hrs; format: functional, organism-based; details: K-12 substr. MG1655
Escherichia coli [13] = test: Ratio of MIC for Escherichia coli MG1655 cultured in MHB supplemented with 10% human serum after 24 hrs to MIC for Escherichia coli MG1655 cultured in absence of 10% human serum; format: functional, K-12 substr. MG1655
Escherichia coli [14] = test: Antibacterial activity against Escherichia coli MG1655 cultured in MHB supplemented with 5 to 40 mg/ml at 1 to 2 ug/ml after 24 hrs; format: functional, organism-based; details: K-12 substr. MG1655
Escherichia coli [15] = test: Disruption of inner membrane integrity in Escherichia coli MG1655 assessed as induction of […] conversion at 256 ug/ml measured at 10 mins intervals for 1 hr; format: functional, organism-based; details: K-12 substr. MG1655
Pseudomonas aeruginosa [16] = test: Disruption of inner membrane integrity in Pseudomonas aeruginosa PAO1 ATCC 15692 co-expressing pMP2200::PrrnB plasmid assessed as induction of OPNG conversion at 256 ug/ml measured at 10 mins intervals for 1 hr; format: functional, organism-based
Acinetobacter baumannii [17] = test: Disruption of inner membrane integrity in Acinetobacter baumannii ATCC 19606 co-expressing pMP2200::PrrnB plasmid assessed as induction of […] conversion at 256 ug/ml measured at 10 mins intervals for 1 hr; format: functional, organism-based; details: ATCC 19606 = CIP 70.34 = JCM 6841
Escherichia coli [18] = test: Disruption of Escherichia coli MG1655 ATCC 47076 outer membrane integrity assessed as induction of NPN uptake after 30 mins by NPN fluorescence-based assay; format: functional, organism-based; details: K-12 substr. MG1655 ATCC 47076
Pseudomonas aeruginosa [19] = test: Disruption of Pseudomonas aeruginosa PAO1 ATCC 15692 outer membrane integrity assessed as induction of NPN uptake after 30 mins by NPN fluorescence-based assay; format: functional, organism-based
Acinetobacter baumannii [20] = test: Disruption of Acinetobacter baumannii ATCC 19606 outer membrane integrity assessed as induction of NPN uptake after 30 mins by NPN fluorescence-based assay; format: functional, organism-based; details: ATCC 19606 = CIP 70.34 = JCM 6841
Escherichia coli [21] = test: Antibiofilm activity against Escherichia coli MG1655 ATCC 47076 at half MIC concentration after 24 hrs by crystal violet-based assay; format: functional, organism-based; details: K-12 substr. MG1655 ATCC 47076
Pseudomonas aeruginosa [22] = test: Antibiofilm activity against Pseudomonas aeruginosa PAO1 ATCC 15692 at half MIC concentration after 24 hrs by crystal violet-based assay; format: functional, organism-based
Acinetobacter baumannii [23] = test: Antibiofilm activity against Acinetobacter baumannii ATCC 19606 at half MIC concentration after 24 hrs by crystal violet-based assay; format: functional, organism-based; details: ATCC 19606 = CIP 70.34 = JCM 6841
Escherichia coli [24] = test: Antibiofilm activity against Escherichia coli MG1655 ATCC 47076 assessed as effect on biofilm 3D structures at half MIC concentration after 24 hrs by AO-staining based confocal microscopy; format: functional, organism-based; details: K-12 substr. MG1655 ATCC 47076
Pseudomonas aeruginosa [25] = test: Antibiofilm activity against Pseudomonas aeruginosa PAO1 ATCC 15692 assessed as effect on biofilm 3D structures at half MIC concentration after 24 hrs by AO-staining based confocal microscopy; format: functional, organism-based
Acinetobacter baumannii [26] = test: Antibiofilm activity against Acinetobacter baumannii ATCC 19606 assessed as effect on biofilm 3D structures at half MIC concentration after 24 hrs by AO-staining based confocal microscopy; format: functional, organism-based; details: ATCC 19606 = CIP 70.34 = JCM 6841
[27] = Hemolytic activity against human erythrocytes assessed as induction of hemolysis at 64 ug/ml after 30 mins; format: cell-based, Erythrocyte; details: read-out: Activity
HeLa [28] = test: Cytotoxicity against human HeLa cells assessed as reduction in cell viability at 16 ug/ml after 24 hrs by celltox green-based assay
HeLa [29] = test: Cytotoxicity against human HeLa cells assessed as reduction in cell viability at 256 ug/ml after 24 hrs by celltox green-based assay relative to control
[30] = Metabolic stability in human liver microsomes at 50 uM after 60 mins in presence of NADPH by LC-UV-MS analysis; format: ADME, Microsome; details: read-out: Stability
[31] = 1-Octanol/Tris buffer distribution coefficient, log D of the compound at pH 7.4 by HPLC analysis; format: physicochemical
Albumin [32] = target: T1, Albumin (Homo sapiens, UniProt P02768); test: Binding affinity to human serum albumin assessed as dissociation constant after 30 mins by fluorescence-based assay; format: ADME
T1 sequence (P02768 whole entry): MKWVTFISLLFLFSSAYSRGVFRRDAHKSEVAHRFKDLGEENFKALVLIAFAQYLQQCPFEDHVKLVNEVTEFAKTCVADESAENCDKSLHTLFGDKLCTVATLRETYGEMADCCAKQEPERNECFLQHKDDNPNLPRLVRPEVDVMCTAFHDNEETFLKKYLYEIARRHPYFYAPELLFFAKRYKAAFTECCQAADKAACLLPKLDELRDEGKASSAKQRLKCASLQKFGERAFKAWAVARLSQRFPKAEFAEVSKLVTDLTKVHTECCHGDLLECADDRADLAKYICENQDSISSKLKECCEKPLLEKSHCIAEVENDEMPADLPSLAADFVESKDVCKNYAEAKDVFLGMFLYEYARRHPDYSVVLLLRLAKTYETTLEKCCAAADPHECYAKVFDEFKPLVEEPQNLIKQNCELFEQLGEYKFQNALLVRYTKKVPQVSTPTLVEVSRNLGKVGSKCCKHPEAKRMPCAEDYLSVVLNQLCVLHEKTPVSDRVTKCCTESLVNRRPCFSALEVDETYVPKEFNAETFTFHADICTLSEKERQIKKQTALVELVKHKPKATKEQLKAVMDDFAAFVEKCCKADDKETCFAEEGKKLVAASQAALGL

Albumin [33] = target: T1, Albumin; test: Binding affinity to human serum albumin assessed as Bmax after 30 mins by fluorescence-based assay; format: ADME; details: isolated protein, 0.5 h
[34] = Binding affinity to AGP (unknown origin) assessed as dissociation constant after 30 mins by fluorescence-based assay; format: ADME, Homo sapiens
[35] = Binding affinity to AGP (unknown origin) assessed as Bmax after 30 mins by fluorescence-based assay; format: ADME; details: human, isolated protein, 0.5 h
[36] = Apparent permeability of the compound after 5 hrs by PAMPA; format: ADME
Escherichia coli [37] = test: Antibacterial activity against Escherichia coli CCUG deficient in potD gene; format: functional, organism-based
Escherichia coli [38] = test: Antibacterial activity against Escherichia coli CCUG deficient in potE gene; format: functional, organism-based
Escherichia coli [39] = test: Antibacterial activity against Escherichia coli CCUG deficient in potF gene; format: functional, organism-based
Escherichia coli [40] = test: Antibacterial activity against Escherichia coli CCUG deficient in potG gene; format: functional, organism-based
Escherichia coli [41] = test: Antibacterial activity against Escherichia coli CCUG deficient in potH gene; format: functional, organism-based
Escherichia coli [42] = test: Antibacterial activity against Escherichia coli CCUG deficient in potI gene; format: functional, organism-based
Escherichia coli [43] = test: Antibacterial activity against Escherichia coli CCUG assessed as inhibition of microbial growth at >32 ug/ml measured up to 48 hrs; format: functional, organism-based
in vitro [44] = details: human, Caco-2; remark: listed apart in the source
Description: Apparent permeability across apical to basolateral side in human Caco2 cells at 10 uM after 120 mins by LC-MS/MS analysis

Escherichia coli [45] = test: Antibacterial activity against Escherichia coli CCUG after 18 hrs by microdilution broth method
Escherichia coli [46] = test: Induction of cytoplasmic membrane depolarization in Escherichia coli at 16 ug/ml by DiSC3-5-fluorescence based assay

Compound: COLISTIN
- MIC (Acinetobacter baumannii [1]): 1 µg/mL
- MIC (Escherichia coli [2]): 0.5 µg/mL
- MIC (Klebsiella pneumoniae [3]): 0.5 µg/mL
- MIC (Pseudomonas aeruginosa [4]): 0.5 µg/mL
- Activity (Escherichia coli [5]): Active

Compound: CC(C)NCC(O)COc1cccc2ccccc12 (stereo not drawn) [PROPRANOLOL]
- efflux ratio at 2 h, 10 µM (in vitro [6]): 0.4

Compound: N=C(N)NCCCCCCCCN(CCCCCCCCNC(=N)NCC1CC1)C(=O)N(CCCCCCCCNC(=N)N)CCCCCCCCNC(=N)NCC1CC1
- Activity (Escherichia coli [7]): Active
- Activity (Escherichia coli [8]): Active
- MIC (Bacillus spizizenii): 0.5 µg/mL (≈ 0.591 µM)
- MIC (Enterococcus faecalis): 2 µg/mL (≈ 2.37 µM)
- MIC (Staphylococcus aureus): 2 µg/mL (≈ 2.37 µM)
- MIC (Streptococcus pyogenes): 1 µg/mL (≈ 1.18 µM)
- MIC (Acinetobacter baumannii [1]; ATCC 17978, 18 h): 8 µg/mL (≈ 9.46 µM)
- MIC (Klebsiella pneumoniae [3]): 2 µg/mL (≈ 2.37 µM)
- MIC (Pseudomonas aeruginosa [4]; ATCC 27853, 18 h): 8 µg/mL (≈ 9.46 µM)
- MIC (Acinetobacter baumannii [9]): 2 µg/mL (≈ 2.37 µM)
- MIC (Burkholderia cepacia): 16 µg/mL (≈ 18.9 µM)
- MIC (Enterobacter cloacae): 1 µg/mL (≈ 1.18 µM)
- MIC (Klebsiella pneumoniae [10]): 2 µg/mL (≈ 2.37 µM)
- MIC [11]: 16 µg/mL (≈ 18.9 µM)
- Activity (Escherichia coli [5]): >=4 log10CFU/ml
- growth inhibition (GI) (Escherichia coli [12]): inactive
- Ratio (Escherichia coli [13]): 2
- Activity (Escherichia coli [14]): Active
- Activity (Escherichia coli [15]): inactive
- Activity (Pseudomonas aeruginosa [16]): inactive
- Activity (Acinetobacter baumannii [17]): inactive
- Activity (Escherichia coli [18]): Dose-dependent effect
- Activity (Pseudomonas aeruginosa [19]): Dose-dependent effect
- Activity (Acinetobacter baumannii [20]): Dose-dependent effect
- Activity (Escherichia coli [21]): inactive
- Activity (Pseudomonas aeruginosa [22]): inactive
- Activity (Acinetobacter baumannii [23]): inactive
- Activity (Escherichia coli [24]): inactive
- Activity (Pseudomonas aeruginosa [25]): inactive
- Activity (Acinetobacter baumannii [26]): inactive
- hemolysis at 0.5 h, 64 ug/ml [27]: 0 to 7%
- Activity (HeLa [28]): Non-Toxic
- Activity (HeLa [29]): <= 60%
- remaining at 1 h, 50 µM [30]: > 99%
- logD [31]: -0.79
- Kd (Albumin [32]): 23.3 µM
- Bmax (Albumin [33]): 14%
- Kd [34]: 0.11 µM
- Bmax [35]: 30.2%
- Papp at 5 h [36]: 1.6 ×10⁻⁶ cm/s
- Activity (Escherichia coli [37]): Active
- Activity (Escherichia coli [38]): Active
- Activity (Escherichia coli [39]): Active
- Activity (Escherichia coli [40]): Active
- Activity (Escherichia coli [41]): Active
- Activity (Escherichia coli [42]): Active
- Activity (Escherichia coli [43]): Active
- Papp A→B at 2 h, 10 µM (in vitro [44]): 0.19 ×10⁻⁶ cm/s
- efflux ratio at 2 h, 10 µM (in vitro [6]): 0.65
- MIC (Escherichia coli [45]): 2 µg/mL (≈ 2.37 µM)
- Activity (Escherichia coli [46]): inactive

Compound: CO[C@H]1/C=C/O[C@@]2(C)Oc3c(C)c(O)c4c(O)c(c5c(nc6cc(C)ccn65)c4c3C2=O)NC(=O)/C(C)=C\C=C\[C@H](C)[C@H](O)[C@@H](C)[C@@H](O)[C@@H](C)[C@H](OC(C)=O)[C@@H]1C [RIFAXIMIN]
- Papp at 5 h [36]: 0.06 ×10⁻⁶ cm/s
